Reference: ChEMBL document CHEMBL1158306, “Chlorinated annonaceous acetogenins and their bioactivities” (J Nat Prod, 1996)
In brackets after ≈: the same amount, converted by molar mass.

Assays:
[1] = system: HT-29; experiment: Cytotoxicity against human HT29 cells after 7 days by MTT assay; format: functional; conditions: for EC50: Homo sapiens, HT-29, 168 h, read-out: ED50 (the source's name)
[2] = Toxicity in brine shrimp larvae; format: organism-based; conditions: artemia, in vivo
[3] = system: MCF7; experiment: Cytotoxicity against human MCF7 cells after 7 days by MTT assay; format: functional; conditions: MCF7, 168 h, read-out: ED50 (the source's name)
[4] = system: A549; experiment: Cytotoxicity against human A549 cells after 7 days by MTT assay; format: functional; conditions: A549, 168 h, read-out: ED50 (the source's name)
[5] = system: A498; experiment: Cytotoxicity against human A498 cells after 7 days by MTT assay; format: functional; conditions: A498, 168 h, read-out: ED50 (the source's name)
[6] = system: PC-3; experiment: Cytotoxicity against human PC3 cells after 7 days by MTT assay; format: functional; conditions: PC-3, 168 h, read-out: ED50 (the source's name)
[7] = system: MIA PaCa-2; experiment: Cytotoxicity against human MIAPaCa2 cells after 7 days by MTT assay; format: functional; conditions: MIA PaCa-2, 168 h, read-out: ED50 (the source's name)

CCCCCCCCCCCCCC[C@H](O)[C@@H]1CC[C@@H]([C@@H]2CC[C@@H](CCCCC[C@@H](O)CC3=C[C@H](C)OC3=O)O2)O1 [ASIMILOBIN]
EC50 [1]: 0.063 µg/mL (≈ 0.109 µM)

CCCCCCCCCCCCCC[C@@H](O)[C@H](O)CC[C@H](O)[C@@H]1CC[C@@H](CCCCC[C@@H](O)CC2=C[C@H](C)OC2=O)O1 [GIGANTETROCIN A]
ED50 [1]: 4.1 ×10⁻⁵ ug/ml
LC50 [2]: 2.6 µg/mL (≈ 4.36 µM)
EC50 [3]: 0.63 µg/mL (≈ 1.06 µM)
EC50 [4]: 0.25 µg/mL (≈ 0.419 µM)

CCCCCCCCCCCCCCC(Cl)[C@@H]1CC[C@H]([C@@H]2CC[C@@H](CCCCC[C@H](Cl)CC3=C[C@H](C)OC3=O)O2)O1 (stereo not given in full)
EC50 [5]: 2.47 µg/mL (≈ 4.01 µM)
EC50 [6]: 0.755 µg/mL (≈ 1.23 µM)
EC50 [1]: > 10 µg/mL
LC50 [2]: 31.9 µg/mL (≈ 51.8 µM)
EC50 [7]: 1.16 µg/mL (≈ 1.88 µM)
EC50 [3]: > 10 µg/mL
EC50 [4]: 2.39 µg/mL (≈ 3.88 µM)

CCCCCCCCCCCCCC[C@@H](O)[C@H](O)CC[C@H](O)[C@@H]1CC[C@@H](CCCCC[C@H](Cl)CC2=C[C@H](C)OC2=O)O1
EC50 [5]: > 10 µg/mL
EC50 [6]: > 10 µg/mL
EC50 [1]: 0.38 µg/mL (≈ 0.618 µM)
LC50 [2]: 54.6 µg/mL (≈ 88.7 µM)
EC50 [7]: > 10 µg/mL
EC50 [3]: 5.74 µg/mL (≈ 9.33 µM)
EC50 [4]: > 10 µg/mL

COc1cccc2c1C(=O)c1c(O)c3c(c(O)c1C2=O)C[C@@](O)(C(=O)CO)C[C@@H]3O[C@H]1C[C@H](N)[C@H](O)[C@H](C)O1 [DOXORUBICIN]
EC50 [5]: 0.00649 µg/mL (≈ 0.0119 µM)
EC50 [6]: 0.0262 µg/mL (≈ 0.0482 µM)
EC50 [1]: 0.0346 µg/mL (≈ 0.0637 µM)
EC50 [7]: 0.0079 µg/mL (≈ 0.0145 µM)
EC50 [3]: 0.209 µg/mL (≈ 0.385 µM)
EC50 [4]: 0.0243 µg/mL (≈ 0.0447 µM)
